# Several values for one entry are separate records, joined by “and”; a condition that tells them apart may be missing. Identical values can stand only once. Like-named read-outs stand apart in the source and are kept apart here. Marks after values point to notes of the source that are not given here.
# Assays:
# [1] = Comparative in vivo bioavailability study in the dog (oral gavage, plasma LC-MS-MS); settings: for half-life / AUC / AUC(0-t) / Cmax / Tmax: Beagle, plasma, po
# Method: Test substances (i.e., tapentadol (1 mg/kg) and tapentadol valine carbamate (0.8 mg tapentadol base equivalents/kg)) were administered by oral gavage to a group of five dogs (dog nos. 1, 2, 3, 4 and 5) in a two-way crossover design. The characteristics of the test animals are set out in Table 3.
# (§1) Blood samples were taken at various times after administration and submitted to analysis for the parent drug and pro-drug using a validated LC-MS-MS assay. Pharmacokinetic parameters derived from the plasma analytical data were determined using Win Nonlin.
# [2] = system: guinea pig small intestine myenteric plexus longitudinal muscle; assay: Electrical field stimulation response of isolated guinea pig small intestine smooth muscle (ex vivo); settings: Cavia porcellus; isolated guinea pig ileum, EFS 14 Hz, non-cumulative 10 nM-30 μM; read-out: approximate EC50, effect on electrical field stimulation response
# Method: Strips of guinea pig small intestine myenteric plexus longitudinal muscle and mounted between platinum ring electrodes. The tissue was stretched to a steady tension of about 1 g and changes in force production were recorded using sensitive transducers.
# The optimal voltage for stimulation was determined while the tissue was paced with electrical field stimulation (EFS) at 14 Hz, with a pulse width of 0.5 msec (Trains of pulses for 20 seconds, every 50 seconds).
# EFS at optimal voltage continued throughout the protocol (stable responses=“baseline measurement of EFS”).
# The 3 test conditions employed were as follows:
# (1) Vehicle (deionised water, added at equivalent volume additions to test articles), (2) Tapentadol at 6 concentrations (10 nM, 100 nM, 1 μM, 3 μM, 10 μM & 30 μM) (3) Tapentadol valine carbamate at 6 concentrations (10 nM, 100 nM, 1 μM, 3 μM, 10 μM, & 30 μM).
# Following 10 minutes of baseline EFS, first addition of test article or vehicle (deionized water) was performed.
# Test concentrations were added in a non-cumulative manner with PSS washes between each addition. Next, TTX (Na+ channel blocker) was added to confirm EFS responses were elicited via nerve stimulation. EFS was then stopped.
# [3] = Comparative bioavailability after oral administration to rats (plasma LC-MS-MS); format: in vivo; settings: male rat, oral tapentadol 10 mg free base equiv/kg, individual animals 1-5 (5 outlier)
# Method: Test substances, i.e., tapentadol or tapentadol valine carbamate were administered by oral gavage to groups of male Sprague Dawley rats.
# as §1
# [4] = oral tapentadol HCl 1 mg tapentadol base equiv/kg, individual dogs 1-5
# [5] = oral tapentadol valine carbamate 0.8 mg tapentadol base equiv/kg, individual dogs 1-5
smiles,measurement,setting,value
"CC[C@@H](c1cccc(O)c1)[C@@H](C)CN(C)C (racemic) [Tapentadol, (−)-(1R,2R)-3-(3-dimethyl-amino-1-ethyl-2-methyl-propyl)-phenol]",half-life,"[1]; 0.8 mg/kg, oral tapentadol valine carbamate 0.8 mg tapentadol base equiv/kg, calculated as ln2/mean k, read-out: t½ of tapentadol (converted)",48 min
same,AUC,"[1]; 0.8 mg/kg, oral tapentadol valine carbamate 0.8 mg tapentadol base equiv/kg, individual dogs 1-5, read-out: AUC of tapentadol",31.4 ng·h/mL
same,AUC(0-t),"[1]; 0.8 mg/kg, oral tapentadol valine carbamate 0.8 mg tapentadol base equiv/kg, individual dogs 1-5, read-out: AUCt of tapentadol",29.5 ng·h/mL
same,Cmax,"[1]; 0.8 mg/kg, oral tapentadol valine carbamate 0.8 mg tapentadol base equiv/kg, individual dogs 1-5, read-out: Cmax of tapentadol",13.7 ng/mL
same,Tmax,"[1]; 0.8 mg/kg, oral tapentadol valine carbamate 0.8 mg tapentadol base equiv/kg, individual dogs 1-5, read-out: Tmax of tapentadol",60 min
same,half-life,"[1]; 0.8 mg/kg, oral tapentadol valine carbamate 0.8 mg tapentadol base equiv/kg, individual dogs 1-5, read-out: t½ of tapentadol (converted)",48 min
same,AUC,"[1]; 0.8 mg/kg, oral tapentadol valine carbamate 0.8 mg tapentadol base equiv/kg, mean of 5 dogs, read-out: AUC of tapentadol",34.2 ng·h/mL
same,AUC(0-t),"[1]; 0.8 mg/kg, oral tapentadol valine carbamate 0.8 mg tapentadol base equiv/kg, mean of 5 dogs, read-out: AUCt of tapentadol",32 ng·h/mL
same,Cmax,"[1]; 0.8 mg/kg, oral tapentadol valine carbamate 0.8 mg tapentadol base equiv/kg, mean of 5 dogs, read-out: Cmax of tapentadol",14.5 ng/mL
same,Tmax,"[1]; 0.8 mg/kg, oral tapentadol valine carbamate 0.8 mg tapentadol base equiv/kg, median of 5 dogs, read-out: Tmax of tapentadol",60 min
same,half-life,"[1]; 1 mg/kg, oral tapentadol HCl 1 mg tapentadol base equiv/kg, calculated as ln2/mean k, read-out: t½ of tapentadol (converted)",72 min
same,Tmax,"[1]; 1 mg/kg, oral tapentadol HCl 1 mg tapentadol base equiv/kg, individual dogs 1-5, read-out: Tmax of tapentadol",30 min
same,AUC,"[1]; 1 mg/kg, oral tapentadol HCl 1 mg tapentadol base equiv/kg, mean of 5 dogs, read-out: AUC of tapentadol",2.78 ng·h/mL
same,AUC(0-t),"[1]; 1 mg/kg, oral tapentadol HCl 1 mg tapentadol base equiv/kg, mean of 5 dogs, read-out: AUCt of tapentadol",2.56 ng·h/mL
same,Cmax,"[1]; 1 mg/kg, oral tapentadol HCl 1 mg tapentadol base equiv/kg, mean of 5 dogs, read-out: Cmax of tapentadol",1.45 ng/mL
same,Tmax,"[1]; 1 mg/kg, oral tapentadol HCl 1 mg tapentadol base equiv/kg, median of 5 dogs, read-out: Tmax of tapentadol",30 min
same,AUC of tapentadol,[1]; [4],1.96 ng·h/mL and 2.02 ng·h/mL and 3.38 ng·h/mL and 4.53 ng·h/mL and 1.99 ng·h/mL
same,AUCt of tapentadol,[1]; [4],1.84 ng·h/mL and 1.88 ng·h/mL and 2.68 ng·h/mL and 4.48 ng·h/mL and 1.92 ng·h/mL
same,Cmax of tapentadol,[1]; [4],0.75 ng/mL and 1.77 ng/mL and 1.27 ng/mL and 2.39 ng/mL and 1.08 ng/mL
same,T>50%Cmax of tapentadol,[1]; [4],1.5 h (2×) and 0 h and 0.5 h (2×)
same,T>50%Cmax of tapentadol,"[1]; oral tapentadol HCl 1 mg tapentadol base equiv/kg, median of 5 dogs",0.5^a h
same,AUC of tapentadol,[1]; [5],25.5 ng·h/mL and 39.9 ng·h/mL and 29.1 ng·h/mL and 45.0 ng·h/mL
same,AUCt of tapentadol,[1]; [5],22.8 ng·h/mL and 36.4 ng·h/mL and 28.3 ng·h/mL and 43.2 ng·h/mL
same,Cmax of tapentadol,[1]; [5],11.1 ng/mL and 17.0 ng/mL and 11.7 ng/mL and 19.3 ng/mL
same,T>50%Cmax of tapentadol,[1]; [5],1 h (3×) and 1.5 h (2×)
same,Tmax of tapentadol,[1]; [5],120 min
same,t½ of tapentadol,[1]; [5],66 min and 54 min and 60 min and 36 min
same,T>50%Cmax of tapentadol,"[1]; oral tapentadol valine carbamate 0.8 mg tapentadol base equiv/kg, median of 5 dogs",1^a h
same,EC50,[2],~200 nM
same,Plasma concentration of tapentadol,[3]; 0.5 h,003.53 ng/mL and 001.60 ng/mL and 2.33 ng/mL and 003.48 ng/mL and 70.5 ng/mL
same,Plasma concentration of tapentadol,[3]; 1 h,3.98 ng/mL and 2.32 ng/mL and 5.21 ng/mL and 5.87 ng/mL and 52.6 ng/mL
same,Plasma concentration of tapentadol,[3]; 2 h,2.70 ng/mL and 2.28 ng/mL and 1.72 ng/mL and 3.06 ng/mL and 22.7 ng/mL
same,Plasma concentration of tapentadol,[3]; 3 h,1.75 ng/mL and 1.65 ng/mL and 1.68 ng/mL and 2.20 ng/mL and 10.9 ng/mL
same,Plasma concentration of tapentadol,[3]; 4 h,1.65 ng/mL and 3.61 ng/mL and 1.67 ng/mL and 2.62 ng/mL and 9.10 ng/mL
